# Laboratory results: ChEMBL document CHEMBL5120927, “LEGO-Lipophosphonoxins: A Novel Approach in Designing Membrane Targeting Antimicrobials” (J Med Chem, 2022)
# System: Escherichia coli
# Experiment: Antibacterial activity against multidrug-resistant Escherichia coli CE5556 expressing CTX-M-15 assessed as reduction in microbial growth incubated for 24 hrs by microdilution assay
# Format: functional
# Conditions: not given
row,SMILES,MIC
1,CCC/C=C\CCOP(=O)(CCN(CCCN)CCCN)OCCCCCOP(=O)(CCN(CCCN)CCCN)OCC/C=C\CCC.Cl.Cl.Cl.Cl.Cl.Cl (centres undefined),> 128 mg/L
2,Cl.Cl.Cl.Cl.Cl.Cl.NCCCN(CCCN)CCP(=O)(OCCCCCCCOP(=O)(CCN(CCCN)CCCN)OCCCC(F)(F)F)OCCCC(F)(F)F (centres undefined),> 128 mg/L
3,CCCCCOP(=O)(CCN(CCN)CCN)OCCCCCCCCOP(=O)(CCN(CCN)CCN)OCCCCC.Cl.Cl.Cl.Cl.Cl.Cl (centres undefined),> 128 mg/L

# System: Pseudomonas aeruginosa
# Experiment: Antibacterial activity against multidrug-resistant Pseudomonas aeruginosa assessed as reduction in microbial growth incubated for 24 hrs by microdilution assay
# Format: functional
# Conditions: not given
row,SMILES,MIC
1,CCC/C=C\CCOP(=O)(CCN(CCCN)CCCN)OCCCCCOP(=O)(CCN(CCCN)CCCN)OCC/C=C\CCC.Cl.Cl.Cl.Cl.Cl.Cl (centres undefined),> 128 mg/L
2,Cl.Cl.Cl.Cl.Cl.Cl.NCCCN(CCCN)CCP(=O)(OCCCCCCCOP(=O)(CCN(CCCN)CCCN)OCCCC(F)(F)F)OCCCC(F)(F)F (centres undefined),> 128 mg/L
3,CCCCCOP(=O)(CCN(CCN)CCN)OCCCCCCCCOP(=O)(CCN(CCN)CCN)OCCCCC.Cl.Cl.Cl.Cl.Cl.Cl (centres undefined),> 128 mg/L

# System: Staphylococcus aureus
# Experiment: Antibacterial activity against Staphylococcus aureus ATCC 29213 = CCM 4223 assessed as inhibition of bacterial growth incubated for 24 hrs in presence of BSA by microdilution assay
# Format: functional
# Conditions: not given
row,SMILES,MIC
1,CCC/C=C\CCOP(=O)(CCN(CCCN)CCCN)OCCCCCOP(=O)(CCN(CCCN)CCCN)OCC/C=C\CCC.Cl.Cl.Cl.Cl.Cl.Cl (centres undefined),64 mg/L
2,Cl.Cl.Cl.Cl.Cl.Cl.NCCCN(CCCN)CCP(=O)(OCCCCCCCOP(=O)(CCN(CCCN)CCCN)OCCCC(F)(F)F)OCCCC(F)(F)F (centres undefined),> 128 mg/L
3,CCCCCOP(=O)(CCN(CCN)CCN)OCCCCCCCCOP(=O)(CCN(CCN)CCN)OCCCCC.Cl.Cl.Cl.Cl.Cl.Cl (centres undefined),8 mg/L

# System: Enterococcus faecium
# Experiment: Antibacterial activity against vancomycin resistant Enterococcus faecium 419/ANA assessed as reduction in microbial growth incubated for 24 hrs by microdilution assay
# Format: functional
# Conditions: not given
row,SMILES,MIC
1,CCC/C=C\CCOP(=O)(CCN(CCCN)CCCN)OCCCCCOP(=O)(CCN(CCCN)CCCN)OCC/C=C\CCC.Cl.Cl.Cl.Cl.Cl.Cl (centres undefined),> 128 mg/L
2,Cl.Cl.Cl.Cl.Cl.Cl.NCCCN(CCCN)CCP(=O)(OCCCCCCCOP(=O)(CCN(CCCN)CCCN)OCCCC(F)(F)F)OCCCC(F)(F)F (centres undefined),> 128 mg/L
3,CCCCCOP(=O)(CCN(CCN)CCN)OCCCCCCCCOP(=O)(CCN(CCN)CCN)OCCCCC.Cl.Cl.Cl.Cl.Cl.Cl (centres undefined),> 128 mg/L

# System: Escherichia coli
# Experiment: Antibacterial activity against Escherichia coli ATCC 25922 = CCM 3954 assessed as inhibition of bacterial growth incubated for 24 hrs by microdilution assay
# Format: functional
# Conditions: not given
row,SMILES,MIC
1,CCC/C=C\CCOP(=O)(CCN(CCCN)CCCN)OCCCCCOP(=O)(CCN(CCCN)CCCN)OCC/C=C\CCC.Cl.Cl.Cl.Cl.Cl.Cl (centres undefined),128 mg/L
2,Cl.Cl.Cl.Cl.Cl.Cl.NCCCN(CCCN)CCP(=O)(OCCCCCCCOP(=O)(CCN(CCCN)CCCN)OCCCC(F)(F)F)OCCCC(F)(F)F (centres undefined),128 mg/L
3,CCCCCOP(=O)(CCN(CCN)CCN)OCCCCCCCCOP(=O)(CCN(CCN)CCN)OCCCCC.Cl.Cl.Cl.Cl.Cl.Cl (centres undefined),2 mg/L

# System: Pseudomonas aeruginosa
# Experiment: Antibacterial activity against Pseudomonas aeruginosa ATCC 27853 = CCM 3955 assessed as inhibition of bacterial growth incubated for 24 hrs by microdilution assay
# Format: functional
# Conditions: not given
row,SMILES,MIC
1,CCC/C=C\CCOP(=O)(CCN(CCCN)CCCN)OCCCCCOP(=O)(CCN(CCCN)CCCN)OCC/C=C\CCC.Cl.Cl.Cl.Cl.Cl.Cl (centres undefined),> 128 mg/L
2,Cl.Cl.Cl.Cl.Cl.Cl.NCCCN(CCCN)CCP(=O)(OCCCCCCCOP(=O)(CCN(CCCN)CCCN)OCCCC(F)(F)F)OCCCC(F)(F)F (centres undefined),> 128 mg/L
3,CCCCCOP(=O)(CCN(CCN)CCN)OCCCCCCCCOP(=O)(CCN(CCN)CCN)OCCCCC.Cl.Cl.Cl.Cl.Cl.Cl (centres undefined),> 128 mg/L

# System: Staphylococcus aureus
# Experiment: Antibacterial activity against Staphylococcus aureus ATCC 29213 = CCM 4223 assessed as inhibition of bacterial growth incubated for 24 hrs by microdilution assay
# Format: functional
# Conditions: not given
row,SMILES,MIC
1,CCC/C=C\CCOP(=O)(CCN(CCCN)CCCN)OCCCCCOP(=O)(CCN(CCCN)CCCN)OCC/C=C\CCC.Cl.Cl.Cl.Cl.Cl.Cl (centres undefined),32 mg/L
2,Cl.Cl.Cl.Cl.Cl.Cl.NCCCN(CCCN)CCP(=O)(OCCCCCCCOP(=O)(CCN(CCCN)CCCN)OCCCC(F)(F)F)OCCCC(F)(F)F (centres undefined),> 128 mg/L
3,CCCCCOP(=O)(CCN(CCN)CCN)OCCCCCCCCOP(=O)(CCN(CCN)CCN)OCCCCC.Cl.Cl.Cl.Cl.Cl.Cl (centres undefined),8 mg/L

# System: not listed separately
# Experiment: Gradient chromatographic hydrophobicity index of the compound at pH 3.7 by HPLC analysis
# Format: ADME
# Conditions: not given
row,SMILES,CHI
1,CCC/C=C\CCOP(=O)(CCN(CCCN)CCCN)OCCCCCOP(=O)(CCN(CCCN)CCCN)OCC/C=C\CCC.Cl.Cl.Cl.Cl.Cl.Cl (centres undefined),28.2
2,Cl.Cl.Cl.Cl.Cl.Cl.NCCCN(CCCN)CCP(=O)(OCCCCCCCOP(=O)(CCN(CCCN)CCCN)OCCCC(F)(F)F)OCCCC(F)(F)F (centres undefined),24.6
3,CCCCCOP(=O)(CCN(CCN)CCN)OCCCCCCCCOP(=O)(CCN(CCN)CCN)OCCCCC.Cl.Cl.Cl.Cl.Cl.Cl (centres undefined),34.7

# System: Staphylococcus epidermidis
# Experiment: Antibacterial activity against Staphylococcus epidermidis CCM 7221 assessed as inhibition of bacterial growth incubated for 24 hrs by microdilution assay
# Format: functional
# Conditions: not given
row,SMILES,MIC
1,CCC/C=C\CCOP(=O)(CCN(CCCN)CCCN)OCCCCCOP(=O)(CCN(CCCN)CCCN)OCC/C=C\CCC.Cl.Cl.Cl.Cl.Cl.Cl (centres undefined),128 mg/L
2,Cl.Cl.Cl.Cl.Cl.Cl.NCCCN(CCCN)CCP(=O)(OCCCCCCCOP(=O)(CCN(CCCN)CCCN)OCCCC(F)(F)F)OCCCC(F)(F)F (centres undefined),128 mg/L
3,CCCCCOP(=O)(CCN(CCN)CCN)OCCCCCCCCOP(=O)(CCN(CCN)CCN)OCCCCC.Cl.Cl.Cl.Cl.Cl.Cl (centres undefined),2 mg/L

# System: Staphylococcus aureus
# Experiment: Antibacterial activity against methicillin resistant Staphylococcus aureus 4591/A assessed as reduction in microbial growth incubated for 24 hrs by microdilution assay
# Format: functional
# Conditions: not given
row,SMILES,MIC
1,CCC/C=C\CCOP(=O)(CCN(CCCN)CCCN)OCCCCCOP(=O)(CCN(CCCN)CCCN)OCC/C=C\CCC.Cl.Cl.Cl.Cl.Cl.Cl (centres undefined),32 mg/L
2,Cl.Cl.Cl.Cl.Cl.Cl.NCCCN(CCCN)CCP(=O)(OCCCCCCCOP(=O)(CCN(CCCN)CCCN)OCCCC(F)(F)F)OCCCC(F)(F)F (centres undefined),> 128 mg/L
3,CCCCCOP(=O)(CCN(CCN)CCN)OCCCCCCCCOP(=O)(CCN(CCN)CCN)OCCCCC.Cl.Cl.Cl.Cl.Cl.Cl (centres undefined),8 mg/L

# System: Escherichia coli
# Experiment: Antibacterial activity against Escherichia coli ATCC 25922 = CCM 3954 assessed as inhibition of bacterial growth incubated for 24 hrs in presence of BSA by microdilution assay
# Format: functional
# Conditions: not given
row,SMILES,MIC
1,CCC/C=C\CCOP(=O)(CCN(CCCN)CCCN)OCCCCCOP(=O)(CCN(CCCN)CCCN)OCC/C=C\CCC.Cl.Cl.Cl.Cl.Cl.Cl (centres undefined),128 mg/L
2,Cl.Cl.Cl.Cl.Cl.Cl.NCCCN(CCCN)CCP(=O)(OCCCCCCCOP(=O)(CCN(CCCN)CCCN)OCCCC(F)(F)F)OCCCC(F)(F)F (centres undefined),> 128 mg/L
3,CCCCCOP(=O)(CCN(CCN)CCN)OCCCCCCCCOP(=O)(CCN(CCN)CCN)OCCCCC.Cl.Cl.Cl.Cl.Cl.Cl (centres undefined),> 128 mg/L

# System: Enterococcus faecalis
# Experiment: Antibacterial activity against Enterococcus faecalis ATCC 29212 = CCM 4224 assessed as inhibition of bacterial growth incubated for 24 hrs by microdilution assay
# Format: functional
# Conditions: not given
row,SMILES,MIC
1,CCC/C=C\CCOP(=O)(CCN(CCCN)CCCN)OCCCCCOP(=O)(CCN(CCCN)CCCN)OCC/C=C\CCC.Cl.Cl.Cl.Cl.Cl.Cl (centres undefined),> 128 mg/L
2,Cl.Cl.Cl.Cl.Cl.Cl.NCCCN(CCCN)CCP(=O)(OCCCCCCCOP(=O)(CCN(CCCN)CCCN)OCCCC(F)(F)F)OCCCC(F)(F)F (centres undefined),> 128 mg/L
3,CCCCCOP(=O)(CCN(CCN)CCN)OCCCCCCCCOP(=O)(CCN(CCN)CCN)OCCCCC.Cl.Cl.Cl.Cl.Cl.Cl (centres undefined),> 128 mg/L

# System: not listed separately
# Experiment: Hemolytic activity in human RBC assessed as haemoglobin release measured after 3 hr
# Format: toxicity, cell-based, Erythrocyte
# Conditions: red blood cells (erythrocytes)
row,SMILES,HC50 at 3 h
1,CCC/C=C\CCOP(=O)(CCN(CCCN)CCCN)OCCCCCOP(=O)(CCN(CCCN)CCCN)OCC/C=C\CCC.Cl.Cl.Cl.Cl.Cl.Cl (centres undefined),> 250 µg/mL
2,Cl.Cl.Cl.Cl.Cl.Cl.NCCCN(CCCN)CCP(=O)(OCCCCCCCOP(=O)(CCN(CCCN)CCCN)OCCCC(F)(F)F)OCCCC(F)(F)F (centres undefined),> 200 µg/mL
3,CCCCCOP(=O)(CCN(CCN)CCN)OCCCCCCCCOP(=O)(CCN(CCN)CCN)OCCCCC.Cl.Cl.Cl.Cl.Cl.Cl (centres undefined),> 200 µg/mL
